# Measured values taken from patent US8957049B2, “Inhibitors of fatty acid amide hydrolase” (Infinity Pharmaceuticals, Inc., priority 2008, dated 2015).
# pKi: −log10 of the molar value.
# Molecular target: T1, human FAAH (Homo sapiens, UniProt O00519)
# T1 construct: host or cells: COS-7 cells, transient transfection (FuGENE 6); 13,000 g membrane fraction solubilised in 1% Triton X-100
# T1 sequence (O00519 1-579): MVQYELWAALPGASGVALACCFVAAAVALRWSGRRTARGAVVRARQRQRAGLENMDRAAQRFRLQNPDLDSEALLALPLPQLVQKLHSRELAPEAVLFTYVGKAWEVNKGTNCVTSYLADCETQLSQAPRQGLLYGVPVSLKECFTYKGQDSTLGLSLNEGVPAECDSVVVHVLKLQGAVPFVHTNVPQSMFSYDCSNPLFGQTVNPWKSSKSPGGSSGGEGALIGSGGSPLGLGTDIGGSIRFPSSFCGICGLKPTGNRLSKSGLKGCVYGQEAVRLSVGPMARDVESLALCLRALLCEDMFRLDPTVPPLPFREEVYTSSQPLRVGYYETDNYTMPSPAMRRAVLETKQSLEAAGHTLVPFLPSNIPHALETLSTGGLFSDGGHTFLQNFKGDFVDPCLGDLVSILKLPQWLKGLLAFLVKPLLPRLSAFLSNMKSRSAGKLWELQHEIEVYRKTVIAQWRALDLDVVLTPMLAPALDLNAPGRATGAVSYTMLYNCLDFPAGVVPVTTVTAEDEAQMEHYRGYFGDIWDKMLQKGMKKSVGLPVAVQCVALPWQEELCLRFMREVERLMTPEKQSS
# Assay: Human FAAH biochemical inhibition assay (AMC arachidonoyl amide fluorescence)
# Conditions: class given in each Example, read-out: Activity (Ki, inhibition of human FAAH)
# Procedure: Exemplary compounds are set forth in the Examples provided below. Compounds were assayed as inhibitors of human FAAH using the method described in detail in Example 286.
# The following assays may be used to determine the inhibition of FAAH by the compounds of the present invention: (1) a fluorescence-based assay for fatty acid amide hydrolase compatible with high-throughput screening as described in Manjunath et al., Analytical Biochemistry (2005) 343:143-151; and (2) a high-throughput screening for the discovery of inhibitors of fatty acid amide hydrolase using a microsome-based fluorescent assay. Wang et al., Biomolecular Screening (2006) 1-9.
# COS-7 cells were split the day before, 1:5 into 150 mm×25 mm cell culture dishes (Corning Inc., Cat. No. 430599). Transient transfection took place at 30-40% confluency according to FuGENE 6 Transfection Reagent (Roche, Cat. No. 11814 443 001).
# The FuGENE transfection 6 reagent (45 uL) was added to 1410 μL of media (DMEM, serum free without pen/strep) in a 15 mL conical tube and incubated at room temp for 5 minutes, followed by the addition of FAAH plasmid DNA (15 μg) (OriGene Cat. No. TC119221, Genbank Accession No. NM_001441.1, 0.67 ug/uL) and a further incubation of 15 minutes at room temperature. The resulting solution was added into one dish of 30-40% confluent COS-7 cells in a drop-wise manner. The COS-7 cell dish was subsequently incubated for 48 hours. The cells are then harvested.
# Media was aspirated from the dishes and the cells rinsed with 10 mL PBS. The PBS was removed and 3 mL of PBS added to the dish. The dish was scraped to resuspend the cells, and the subsequent cell suspension collected into a 15 mL conical tube. The cells were pelleted by centrifugation at 1200 rpm for 5 minutes in a bench top centrifuge. PBS was removed and the cell pellet snap frozen in liquid nitrogen and stored at −80° C.
# COS-7 Cells—FAAH Purification: • (1) Fractionation: Frozen cell pellets from transient transfections were thawed on ice and resuspended in 12.5 mM Hepes pH 8.0, 100 mM NaCl, 1 mM EDTA (10 mL/0.2 g cell pellet). The pellets were dounce homogenized and then sonicated to produce cell extract. The cell extract was subsequently centrifuged at 1000 g to remove cellular debris. The pellet was discarded and the supernatant centrifuged at 13,000 g for 20 minutes. The pellet contained membrane bound FAAH. The supernatant was discarded and the pellet resolubilized. • (2) Re-solubilization: The fraction of interest, (13,000 g, membrane fraction) was re-suspended in 2.3 mL re-suspension buffer (20 mM Hepes pH 7.8, 10% v/v Glycerol, 1 mM EDTA, 1% Triton X-100) and the sample incubated on ice for 1 hour and then centrifuged to remove any particulate matter. The supernatant containing solubilized human FAAH was aliquoted and snap frozen in liquid nitrogen and stored at −80° C. until use. • (3) Characterization: Protein Concentration determined by Bradford assay. • SDS gel and Western blot to confirm presence of FAAH • FAAH activity assay • Km determination—96-well assay • Linear dependence—96-well assay • Standard compound Ki determination—384-well assay
# Rat FAAH biochemical assays were carried out in a 96 well flat bottom black non-treated polystyrene plates (Corning Costar Catalogue #3915). FAAH reaction buffer: 50 mM Hepes (pH 7.5), 1 mM EDTA, 0.2% Triton X-100. FAAH substrate—AMC Arachidonoyl Amide (Cayman Chemicals Company, Catalog #10005098). The reaction was read in an Envision microtiter plate reader [Excitation filter 355 nm (40 nm bandpass); Emmision filter 460 nm (25 nm bandpass)]. The raw fluorescence was plotted on the y axis and the inhibitor concentration on the x axis to give a dose response inhibition curve. The data was fitted to a single site competitive inhibition equation, fixing the Km for the rat and human enzyme to 12 μM and 9 μM respectively. […]
row,Structure (SMILES),pKi
1,COC(=O)C1CC(Cc2ccccc2)ON1Cc1ccc(B(O)O)c(F)c1 (centres unmarked) [Compound 148],7.00 to 8.00
2,OB(O)c1cccc2cccc(COc3cccc(F)c3)c12 [Compound 151],< 6.00
3,OB(O)c1ccc(C2CC(c3ccccc3)=NO2)cc1 (centres unmarked) [Compound 152],≥ 8.00
4,OB(O)c1ccc(-c2cc(-c3ccccc3)no2)cc1 [Compound 156],≥ 8.00
5,OB(O)c1ccc(C2=NOC(c3ccccc3)C2)cc1 (centres unmarked) [Compound 159],≥ 8.00
6,OB(O)c1ccc(-c2cc(-c3ccccc3)on2)cc1 [Compound 160],≥ 8.00
7,CCCCCC1CC(c2ccc(B(O)O)cc2)=NO1 (centres unmarked) [Compound 161],≥ 8.00
8,CCCCCC1(C)CC(c2ccc(B(O)O)cc2)=NO1 (centres unmarked) [Compound 162],≥ 8.00
9,CCCC1(c2ccccc2)CC(c2ccc(B(O)O)cc2)=NO1 (centres unmarked) [Compound 163],6.00 to 7.00
10,CCCCCC1(CCCCC)CC(c2ccc(B(O)O)cc2)=NO1 [Compound 164],6.00 to 7.00
11,OB(O)c1ccc(C2=NOC(c3cccnc3)C2)cc1 (centres unmarked) [Compound 165],7.00 to 8.00
12,OB(O)c1ccc(-c2cc(-c3cccnc3)on2)cc1 [Compound 166],≥ 8.00
13,CCCC1CC(c2ccccc2B(O)O)=NO1 (centres unmarked) [Compound 167],7.00 to 8.00
14,CCCc1cc(-c2ccccc2B(O)O)no1 [Compound 168],< 6.00
15,OB(O)c1ccc([C@H]2OC[C@H](c3ccccc3)CO2)cc1F [Compound 173],≥ 8.00
16,OB(O)c1ccc([C@H]2OC[C@@H](c3ccccc3)CO2)cc1F [Compound 174],≥ 8.00
17,OB(O)c1ccc([C@H]2OC[C@H](c3ccccc3)CO2)cc1 [Compound 175],≥ 8.00
18,OB(O)c1ccc([C@H]2OC[C@H](c3ccccc3)O2)cc1 [Compound 179],≥ 8.00
19,OB(O)c1ccc([C@@H]2OC[C@H](c3ccccc3)O2)cc1 [Compound 180],≥ 8.00
20,OB(O)c1ccc([C@@H]2OC[C@@H](c3ccccc3)O2)cc1 [Compound 181],≥ 8.00
21,OB(O)c1ccc([C@H]2OC[C@@H](c3ccccc3)O2)cc1 [Compound 182],≥ 8.00
22,CC/C=C/c1cc(OCCc2ccccc2)ccc1B(O)O [Compound 183],7.00 to 8.00
23,OB(O)c1ccc(OCCc2ccccc2)cc1/C=C/CCc1ccccc1 [Compound 184],6.00 to 7.00

row,Structure (SMILES),pKi
1,OB(O)c1ccc2cc(Oc3ccccn3)ccc2c1 [Compound 185],≥ 8.00
2,OB(O)c1ccc2cc(Oc3cnccn3)ccc2c1 [Compound 186],≥ 8.00
3,OB(O)c1ccc2nc(Oc3ccccc3)ccc2c1 [Compound 187],≥ 8.00
4,OB(O)c1ccc2ccc(Oc3ccccc3)nc2c1 [Compound 188],≥ 8.00
5,COc1cccc(Oc2ccc3cc(B(O)O)ccc3n2)c1 [Compound 189],≥ 8.00
6,OB(O)c1ccc2nc(OC3CCCC3)ccc2c1 [Compound 190],≥ 8.00
7,CCCCOc1ccc2cc(B(O)O)ccc2n1 [Compound 191],≥ 8.00
8,OB(O)c1ccc2nc(OC3CCCCC3)ccc2c1 [Compound 192],7.00 to 8.00
9,OB(O)c1ccc2nc(OCc3ccccc3)ccc2c1 [Compound 193],≥ 8.00
10,CN(C)c1cccc(Oc2ccc3cc(B(O)O)ccc3n2)c1 [Compound 194],≥ 8.00
11,O=[N+]([O-])c1cccc(Oc2ccc3cc(B(O)O)ccc3n2)c1 [Compound 195],≥ 8.00
12,OB(O)c1ccc2nc(Oc3ccccc3Cl)ccc2c1 [Compound 196],≥ 8.00
13,OB(O)c1ccc2nc(Oc3cccc(Cl)c3)ccc2c1 [Compound 197],≥ 8.00
14,N#Cc1cccc(Oc2ccc3cc(B(O)O)ccc3n2)c1 [Compound 198],≥ 8.00
15,OB(O)c1ccc2nc(Oc3ccccc3O)ccc2c1 [Compound 199],≥ 8.00
16,COc1ccccc1Oc1ccc2cc(B(O)O)ccc2n1 [Compound 200],≥ 8.00
17,OB(O)c1ccc2nc(Oc3ccc(Cl)cc3)ccc2c1 [Compound 201],≥ 8.00
18,COc1ccc2cc(B(O)O)ccc2n1 [Compound 202],7.00 to 8.00
19,CCOc1ccc2cc(B(O)O)ccc2n1 [Compound 203],7.00 to 8.00
20,CN(Cc1ccccc1)c1ccc2cc(B(O)O)ccc2n1 [Compound 204],≥ 8.00
21,CN(c1ccccc1)c1ccc2cc(B(O)O)ccc2n1 [Compound 205],7.00 to 8.00
22,OB(O)c1ccc2nc(Nc3ccccc3)ccc2c1 [Compound 206],≥ 8.00
23,OB(O)c1ccc2nc(N3CCCc4ccccc43)ccc2c1 [Compound 207],7.00 to 8.00

row,Structure (SMILES),pKi
1,OB(O)c1ccc2cc(Oc3ncccn3)ccc2c1 [Compound 208],≥ 8.00
2,OB(O)c1ccc2nc(Oc3cccnc3)ccc2c1 [Compound 209],≥ 8.00
3,Cc1cc2cc(B(O)O)ccc2nc1Oc1ccccc1 [Compound 210],≥ 8.00
4,OB(O)c1ccc2nc(Oc3ccccc3)cnc2c1 [Compound 211],7.00 to 8.00
5,Cc1cc(Oc2ccccc2)nc2c(C)cc(B(O)O)cc12 [Compound 212],7.00 to 8.00
6,Cc1cc(Oc2ccccc2)nc2ccc(B(O)O)cc12 [Compound 213],≥ 8.00
7,OB(O)c1ccc2nc(Oc3ccccc3)sc2c1 [Compound 214],≥ 8.00
8,OB(O)c1ccc2nc(Oc3ccccn3)ccc2c1 [Compound 215],≥ 8.00
9,OB(O)c1ccc2cc(Oc3ccccc3)ccc2c1 [Compound 216],≥ 8.00
10,OB(O)c1ccc2cn(Cc3ccccc3)nc2c1 [Compound 217],≥ 8.00
11,OB(O)c1ccc(-c2cccc(-c3ccccc3)c2)cc1 [Compound 219],7.00 to 8.00
12,CC(C)Cn1cc(B(O)O)cn1 [Compound 220],6.00 to 7.00
13,OB(O)c1ccc2nc(COc3ccccc3)ccc2c1 [Compound 221],7.00 to 8.00
14,CC(C)CCn1cc(-c2ccc(B(O)O)cc2)cn1 [Compound 222],≥ 8.00
15,Cc1nc(-c2ccccc2)sc1-c1ccc(B(O)O)c(F)c1 [Compound 225],7.00 to 8.00
16,OB(O)c1ccc(-c2cnn(Cc3ccccc3)c2)cc1F [Compound 226],≥ 8.00
17,OB(O)c1ccc(-c2cnn(Cc3ccccc3)c2)cc1 [Compound 227],≥ 8.00
18,COc1ccc2cc(-c3ccc(B(O)O)cc3)ccc2c1 [Compound 228],7.00 to 8.00
19,OB(O)c1ccc(-c2cccc3ncccc23)cc1F [Compound 229],7.00 to 8.00
20,OB(O)c1ccc(-c2cccc3[nH]ccc23)cc1F [Compound 230],7.00 to 8.00
21,OB(O)c1ccc(-n2cc(-c3ccccc3)cn2)cc1 [Compound 231],≥ 8.00
22,OB(O)c1ccc(-c2cnn(-c3ccccc3)c2)cc1 [Compound 232],≥ 8.00
